Converted amounts (≈) assume the structure as drawn. “Also recorded” adds a separate entry of the source. Read-outs that look alike come from different tables or passages of the source.
Experiments:
[1] = Solubility in simulated gastric fluid (SGF), HPLC; type: physicochemical
Procedure: When solubility test is used to predict the in vivo performance of a drug, it is critical to simulate in vivo conditions as closely as possible. Simulated gastric fluid (SGF) can be used to simulate the condition in vivo and predict the effects of eating, thus solubility in this medium is closer to that in vivo. 15 mg of Form CSVI was suspended into 2.0 mL of SGF. After equilibrated for 1 h at 37° C., concentrations of the saturated solutions were measured by HPLC.

Grinding stability = type: physicochemical; settings: ground manually in a mortar
Procedure: Solid sample of Form CSVI was ground manually for 5 minutes in a mortar.

[2] = Compressibility (tensile strength of compressed tablet); type: physicochemical; settings: for Diameter / Hardness / Thickness / Tensile strength: 80 mg compressed at 10 KN; for Diameter / Hardness / Thickness: after 24 h at room temperature; for Tensile strength: T=2H/πDL
Procedure: ENERPAC manual tablet press was used for compression. 80 mg of Form CSVI and Form I in the prior art were weighed and added into the dies of a 16 mm round tooling, compressed at 10 KN manually, then stored at room temperature for 24 h until complete elastic recovery, diameter (D) and thickness (L) were tested with caliper. Hardness (H) was tested with an intelligent tablet hardness tester. Tensile strength of the powder was calculated with the following formula: T=2H/πDL. Under a certain force, the greater the tensile strength, the better the compressibility.

[3] = Flowability (compressibility index); type: physicochemical
Procedure: Compressibility index is usually utilized to evaluate the flowability of powder or granules during the drug product process. Compressibility index test method is as follows: a certain amount of powder was added into a measuring cylinder and bulk volume was recorded. Then the powder was tapped to make it in the tightest state and the tapped volume was recorded.
The bulk density (ρ0), tapped density (ρf) were calculated and compressibility index was calculated according to c=(ρf−π0)/ρf.

[4] = Stability of crystalline form in drug product process; type: physicochemical; settings: XRPD, tablet per Tables 11 and 12
Text: The formulation and preparation process of Form CSVI are shown in Table 11 and Table 12, respectively.

[5] = Hygroscopicity by dynamic vapor sorption (DVS); type: physicochemical; settings: for Weight gain: DVS
Procedure: Dynamic Vapor Sorption (DVS) was measured via an SMS (Surface Measurement Systems Ltd.) intrinsic DVS instrument. The instrument control software is DVS-Intrinsic control software. Typical Parameters for DVS test are as follows: • Temperature: 25° C. • Gas and flow rate: N2, 200 mL/min • RH range: 0% RH to 95% RH
Dynamic vapor sorption (DVS) analyzer was applied to evaluate the hygroscopicity of Form CSVI and Form I in the prior art with an appropriate amount. The weight gains at each relative humidity were recorded in a cycle of 0-95%-0 RH.

[6] = Pressure stability (tableting, XRPD); type: physicochemical
Procedure: ENERPAC manual tablet press was used for compression. 20 mg of Form CSVI were compressed into tablets under different pressures with the dies of a 16 mm round tooling. Crystalline form before and after tableting were checked by XRPD.

[7] = Physicochemical stability of drug substance on storage (XRPD, HPLC); settings: for Chemical purity during storage / Time for which crystalline state doesn't change / kept stable: open and sealed package
Procedure: An appropriate amount of Form CSVI were stored under different conditions of 25° C./60% RH and 40° C./75% RH. Crystalline form and chemical purity were checked by XRPD and HPLC, respectively.

[8] = Adhesiveness (amount sticking to the punch); type: physicochemical; settings: 30 mg, Φ8 mm tooling, 10 KN held for 30 s
Procedure: 30 mg of Form CSVI and Form I in the prior art were weighed and then added into the dies of Φ8 mm round tooling, compressed at 10 KN and held for 30 s. The punch was weighed and amount of material sticking to the punch was calculated. The maximum amount and average amount of material sticking to the punch during the compression were recorded.

With `CC(C)c1cc(Oc2c(Cl)cc(-n3nc(C#N)c(=O)[nH]c3=O)cc2Cl)n[nH]c1=O` [Form CSVI, 2-(3,5-dichloro-4-((5-isopropyl-6-oxo-1,6-dihydropyridazin-3-yl)oxy)phenyl)-3,5-dioxo-2,3,4,5-tetrahydro-1,2,4-triazine-6-carbonitrile] the “Solubility of Form CSVI relative to Form I in the prior art” value ([1]; SGF, 1 h) was “about 2 times”, the solubility at 1 h ([1]; simulated gastric fluid (SGF), simulated gastric fluid, thermodynamic from solid, SGF, equilibrated for 1 h at 37° C.) was 2.1 µg/mL (≈ 4.83 µM) and the “Grinding stability (in words)” value (Grinding stability) was “remained stable; also recorded: doesn't change after grinding”. For the same compound, the “Compressibility (in words)” value [2] was “better compressibility”, the Diameter [2] was 6.06 mm and the Hardness [2] was 13.4 N. For the same compound, the Thickness [2] was 2.05 mm, the Tensile strength [2] was 0.69 MPa and the “Flowability compared with Form I in the prior art” value [3] was “superior to that of Form I in the prior art”. The “Crystalline form before and after the formulation process” value [4] was “remained stable”, the Weight gain ([5]; 25° C./80% RH) was 0.07% and the “Crystal form after DVS test” value ([5]; XRPD before and after DVS) was “does not change”. For the same compound, the “Hygroscopicity (in words)” value ([5]; from weight gain at 25° C./80% RH) was “non or almost non hygroscopic”, the “Stability under different pressures (in words)” value ([6]; 3, 7, 14 kN) was “good stability under different pressures” and the “Solid form after tableting” value ([6]; Pressure 3 kN) was “Form CSVI”. For the same compound, the “Solid form after tableting” value ([6]; Pressure 7 kN) was “Form CSVI”, the “Solid form after tableting” value ([6]; Pressure 14 kN) was “Form CSVI” and the Purity ([7]; 25° C./60% RH Open, 6 months) was 99.73%. The “Solid Form” value ([7]; 25° C./60% RH Open, 6 months) was “Form CSVI”, the Purity ([7]; 25° C./60% RH Sealed, 6 months) was 99.74% and the “Solid Form” value ([7]; 25° C./60% RH Sealed, 6 months) was “Form CSVI”. For the same compound, the “Chemical purity during storage” value ([7]; 25° C./60% RH) was “above 99.7%”, the “Time for which crystalline state doesn't change / kept stable” value ([7]; 25° C./60% RH) was “at least 6 months” and the Purity ([7]; 40° C./75% RH Open, 6 months) was 99.73%. The “Solid Form” value ([7]; 40° C./75% RH Open, 6 months) was “Form CSVI”, the Purity ([7]; 40° C./75% RH Sealed, 6 months) was 99.73% and the “Solid Form” value ([7]; 40° C./75% RH Sealed, 6 months) was “Form CSVI”. The “Chemical purity during storage” value ([7]; 40° C./75% RH) was “above 99.7%”, the “Time for which crystalline state doesn't change / kept stable” value ([7]; 40° C./75% RH) was “at least 6 months” and the Purity ([7]; Initial) was 99.73%. The “Solid Form” value ([7]; Initial) was “Form CSVI”, the “Average amount sticking to the punch” value [8] was 0.05 mg and the “Maximum amount sticking to the punch” value [8] was 0.10 mg.
In the case of `CC(C)c1cc(Oc2c(Cl)cc(-n3nc(C#N)c(=O)[nH]c3=O)cc2Cl)n[nH]c1=O` [Form I in the prior art, 2-(3,5-dichloro-4-((5-isopropyl-6-oxo-1,6-dihydropyridazin-3-yl)oxy)phenyl)-3,5-dioxo-2,3,4,5-tetrahydro-1,2,4-triazine-6-carbonitrile, reference compound], the “Solubility (in words)” value ([1]; inventors' evaluation of repeated Form I) is reported as “low solubility”, the “Grinding stability (in words)” value (Grinding stability; listed as crystalline form I) is reported as “most of the crystalline form I transform to amorphous after grinding” and the Diameter [2] is reported as 6.06 mm. It also gave a Hardness [2] of 7.4 N, a Thickness [2] of 2.12 mm and a Tensile strength [2] of 0.37 MPa. For the same compound, the “Compressibility (in words)” value ([2]; listed as crystalline form I) was “poor compressibility”, the Flowability ([3]; class by compressibility index, ICH Q4B Annex 13) was “very poor” and the “Weight gain of Form I relative to Form CSVI” value ([5]; 25° C./80% RH) was “about 2 times”. For the same compound, the Weight gain ([5]; 25° C./80% RH) was 0.13%, the “Average amount sticking to the punch” value [8] was 0.25 mg and the “Maximum amount sticking to the punch” value [8] was 0.30 mg.
For `CC(C)c1cc(Oc2c(Cl)cc(-n3nc(C#N)c(=O)[nH]c3=O)cc2Cl)n[nH]c1=O` [crystalline form F, reference compound], the “Hygroscopicity (in words)” value ([5]; according to WO2020010068A1 and the inventors' experimental study, conditions not given) was “high hygroscopicity”.

Reference: patent publication US12595254B2, “Crystal form of Resmetirom, preparation method therefor, and use thereof” (CRYSTAL PHARMACEUTICAL (SUZHOU) CO., LTD., priority 2020, dated 2026)
